Consider 56 molecules from the Kinase Knowledgebase extract (Sharma et al. 2016).

The target of this test is PIK3CB;PIK3CG;PIK3CD;PIK3CA (human) (UniProt P48736). As to the kind of experiment: Enzyme Assay.

The IC50 is the midpoint of a concentration-inhibition curve. Low readings indicate greater potency, high ones weaker potency. Molecule `O=C(c1nn(C2CCCN(CCC3CCOCC3)C2)c2c1CS(=O)(=O)c1ccccc1-2)N1CCOCC1` (stereo unspecified) came in with an IC50 of 54 nM.
`COCCCn1nc(C(=O)N2CCOCC2)c2c1-c1ccccc1S(=O)(=O)C2` came in with an IC50 of 907 nM.
To `O=C(c1nn(-c2ccccc2F)c2c1CS(=O)(=O)c1ccccc1-2)N1CCOCC1` belongs 2000 nM; to `O=C(NC1CCCCC1)N1CCC(n2nc(C(=O)N3CCOCC3)c3c2-c2ccccc2S(=O)(=O)C3)C1` (stereo unspecified), 875 nM; to `O=C(c1cccc(-n2nc(C(=O)N3CCOCC3)c3c2-c2ccccc2S(=O)(=O)C3)c1)N1CCOCC1`, 73 nM.
Under `O=C(c1nn(-c2cccc(F)c2)c2c1CS(=O)(=O)c1ccccc1-2)N1CCOCC1` stands 739 nM.
Under `CN1CCC(OCCN2CCC[C@H](n3nc(C(=O)N4CCOCC4)c4c3-c3ccccc3S(=O)(=O)C4)C2)CC1` stands 20 nM; under `O=C(c1nn([C@@H]2CCCN(CCF)C2)c2c1CS(=O)(=O)c1ccccc1-2)N1CCOCC1`, 7970 nM.
With `O=C(c1nn(C2CCN(CCN3CCOCC3)CC2)c2c1CS(=O)(=O)c1ccccc1-2)N1CCOCC1`, the IC50 was determined as 369 nM. Compared with the last molecule, the IC50 is about 22-fold lower.
To `O=C(c1nn([C@@H]2CCCN(CC3CCOCC3)C2)c2c1CS(=O)(=O)c1ncccc1-2)N1CCOCC1` belongs 830 nM; to `O=C(c1nn(-c2cccc(CN3CCCC3)c2)c2c1CS(=O)(=O)c1ccccc1-2)N1CCOCC1`, 516 nM.
To `Cn1nc(C(=O)N2CCOCC2)c2c1-c1cc(F)ccc1S(=O)(=O)C2` belongs 2220 nM; to `O=C(c1nn([C@H]2CCCN(CCN3CC[C@H](F)C3)C2)c2c1CS(=O)(=O)c1ccccc1-2)N1CCOCC1`, 14 nM; to `O=C(c1nn(Cc2nc3ccccc3s2)c2c1CS(=O)(=O)c1ccccc1-2)N1CCOCC1`, 1490 nM.
`O=C(c1nn(-c2cccc(Cn3ccnc3)c2)c2c1CS(=O)(=O)c1ccccc1-2)N1CCOCC1` had a 50% inhibitory concentration (IC50) of 673 nM.
To `O=C(c1nn(C2CCCN(CC3CCOCC3)C2)c2c1CS(=O)(=O)c1ccccc1-2)N1CCOCC1` (stereo unspecified) belongs 11 nM; to `O=C(c1nn([C@H]2CCCN(CCC3CCOCC3)C2)c2c1CS(=O)(=O)c1ncccc1-2)N1CCOCC1`, 16 nM; to `O=C(c1nn(Cc2cnccn2)c2c1CS(=O)(=O)c1ccccc1-2)N1CCOCC1`, 10700 nM.
Under `O=C1CCCN1CCN1CCC[C@H](n2nc(C(=O)N3CCOCC3)c3c2-c2ccccc2S(=O)(=O)C3)C1` stands 80 nM; under `O=C(c1nn(-c2ccc(CNC3CCOC3)cc2)c2c1CS(=O)(=O)c1ccccc1-2)N1CCOCC1` (stereo unspecified), 156 nM.
On to `O=C(c1nn(C2CCC(O)CC2)c2c1CS(=O)(=O)c1ccccc1-2)N1CCOCC1` (stereo unspecified), for which the IC50 was found to be 512 nM. This IC50 lies about 3.3-fold higher than the previous one.
To `O=C(c1nn(-c2ccc(F)cc2)c2c1CS(=O)(=O)c1ccccc1-2)N1CCOCC1` belongs 373 nM.
Under `CS(=O)(=O)N1CCCC(n2nc(C(=O)N3CCOCC3)c3c2-c2ccccc2S(=O)(=O)C3)C1` (stereo unspecified) stands 994 nM.
Molecule `O=C(c1nn(-c2cccc(-c3ccncc3)c2)c2c1CS(=O)(=O)c1ccccc1-2)N1CCOCC1` returned an IC50 of 193 nM.
To `COc1cccc2c1S(=O)(=O)Cc1c(C(=O)N3CCOCC3)nn([C@H]3CCCN(CCN4CC(F)(F)C4)C3)c1-2` belongs 40 nM; to `CN1CCC(Cn2nc(C(=O)N3CCOCC3)c3c2-c2ccccc2S(=O)(=O)C3)CC1`, 2650 nM.
Under `O=C(c1nn(C2CCCCC2)c2c1CS(=O)(=O)c1ccsc1-2)N1CCOCC1` stands 212 nM; under `O=C(c1nn(-c2ccccc2)c2c1CS(=O)(=O)c1c(-c3ccccc3)cccc1-2)N1CCOCC1`, 17900 nM; under `O=C(c1nn(-c2ccc(CN3CCC(F)CC3)nc2)c2c1CS(=O)(=O)c1ccccc1-2)N1CCOCC1`, 1200 nM.
Under `COc1cccc(-n2nc(C(=O)N3CCOCC3)c3c2-c2ccccc2S(=O)(=O)C3)c1` stands 1320 nM; under `C[C@@H]1CN(CCN2CCC[C@H](n3nc(C(=O)N4CCOCC4)c4c3-c3ccccc3S(=O)(=O)C4)C2)C[C@H](C)O1`, 65 nM.
In turn, `COc1ccc2c(c1)-c1c(c(C(=O)N3CCOCC3)nn1[C@H]1CCCN(CCN3CCOCC3)C1)CS2(=O)=O` yielded a half-maximal inhibitory concentration (IC50) of 28 nM. This IC50 lies about 2.3-fold lower than the previous one.
To `O=C(c1nn(C2CCOC2)c2c1CS(=O)(=O)c1ccccc1-2)N1CCOCC1` (stereo unspecified) belongs 890 nM.
To `CC1COCCN1C(=O)c1nn(-c2ccccc2)c2c1CS(=O)(=O)c1ccccc1-2` (stereo unspecified) belongs 13900 nM.
Under `Nc1ccc2c(c1)-c1c(c(C(=O)N3CCOCC3)nn1-c1ccccc1)CS2(=O)=O` stands 368 nM; under `O=C(c1nn([C@H]2CCCN(CC3CCOCC3)C2)c2c1CS(=O)(=O)c1ncccc1-2)N1CCOCC1`, 13 nM; under `O=C(c1nn(CC2CCOCC2)c2c1CS(=O)(=O)c1ccccc1-2)N1CCOCC1`, 789 nM.
`COC1CN(Cc2cccc(-n3nc(C(=O)N4CCOCC4)c4c3-c3ccccc3S(=O)(=O)C4)c2)C1` displayed an IC50 of 277 nM.
`O=C(c1nn([C@H]2CCCN(CCC3CCOCC3)C2)c2c1CS(=O)(=O)c1ccccc1-2)N1CCOCC1` registered an IC50 of 34 nM.
To `CC(C)CCOC1CCN(Cc2cccc(-n3nc(C(=O)N4CCOCC4)c4c3-c3ccccc3S(=O)(=O)C4)c2)C1` (stereo unspecified) belongs 389 nM; to `O=C(c1nn(C2CCN(CCN3CCOCC3)C2)c2c1CS(=O)(=O)c1ccccc1-2)N1CCOCC1` (stereo unspecified), 192 nM; to `CC(=O)Nc1ccc2c(c1)-c1c(c(C(=O)N3CCOCC3)nn1-c1ccccc1)CS2(=O)=O`, 876 nM.
Under `CC(C)(C)OC(=O)N1CCC(Cn2nc(C(=O)N3CCOCC3)c3c2-c2ccccc2S(=O)(=O)C3)CC1` stands 495 nM; under `O=C(c1nn([C@H]2CCN(C3CCOCC3)C2)c2c1CS(=O)(=O)c1c(F)cccc1-2)N1CCOCC1`, 52 nM.
Under `COc1cccc2c1S(=O)(=O)Cc1c(C(=O)N3CCOCC3)nn([C@H]3CCCN(CCN4CCOCC4)C3)c1-2` stands 59 nM; under `O=C(c1nn(C2CCCN(CCN3CCOCC3)C2)c2c1CS(=O)(=O)c1ccccc1-2)N1CCOCC1` (stereo unspecified), 122 nM.
As for `O=C(c1nn(-c2ccccc2)c2c1CS(=O)(=O)c1ccc(Br)cc1-2)N1CCOCC1`, the IC50 worked out at 1300 nM.
Under `COCCN1CCC[C@H](n2nc(C(=O)N3CCOCC3)c3c2-c2ccccc2S(=O)(=O)C3)C1` stands 40 nM.
`COC1CN(CCN2CCC[C@H](n3nc(C(=O)N4CCOCC4)c4c3-c3ccccc3S(=O)(=O)C4)C2)C1` returned an IC50 of 20 nM.
In turn, `O=C(c1cccc(-n2nc(C(=O)N3CCOCC3)c3c2-c2ccccc2S(=O)(=O)C3)c1)N1CCC(O)CC1` came in with an IC50 of 371 nM. This IC50 lies about 19-fold higher than the previous one.
Under `CC1CC(C)CC(n2nc(C(=O)N3CCOCC3)c3c2-c2ccccc2S(=O)(=O)C3)C1` (stereo unspecified) stands 7960 nM; under `COC1CCN(CCN2CCC[C@H](n3nc(C(=O)N4CCOCC4)c4c3-c3ccccc3S(=O)(=O)C4)C2)CC1`, 21 nM.
To `O=C(c1nn([C@@H]2CCN(CCN3CCC(F)CC3)C2)c2c1CS(=O)(=O)c1ccccc1-2)N1CCOCC1` belongs 3690 nM; to `COCCN(C)CCN1CCC[C@H](n2nc(C(=O)N3CCOCC3)c3c2-c2ccccc2S(=O)(=O)C3)C1`, 45 nM; to `COc1ccc2c(c1)S(=O)(=O)Cc1c(C(=O)N3CCOCC3)nn([C@H]3CCCN(C4CCCOC4)C3)c1-2` (stereo partly specified), 24 nM.
To `COc1ccc2c(c1)S(=O)(=O)Cc1c(C(=O)N3CCOCC3)nn(C)c1-2` belongs 422 nM.
